These results are taken from patent US5026701A, “Morpholine compounds, compositions and use” (Adir et Compagnie, priority 1989, dated 1991).

The test system of series [1] is mice. Nature of the series: Psycho-awakening effect: sodium barbital (270 mg/kg i.p.) induced narcosis duration. The class given is in vivo. As to conditions: 30 μmols/kg i.p. The method, then:
Male mice are administered sodium barbital by the i.p. route at a dose of 270 mg/kg. The duration of the narcosis so induced is compared between control animals and animals treated beforehand by the i.p. route with the compounds examined.

Series [2] deals with mice. Put plainly: Hexobarbital (75 mg/kg i.p.) induced narcosis duration. The class given is in vivo. The method, then: This antagonism of barbital-induced narcosis reflects a psycho-awakening effect since no antagonism occurs when narcosis is induced with hexobarbital (75 mg/kg i.p.) (product of Example 2β:+20%; product of Example 1:+26%).
In series [3] the test system is mice. Put plainly: Hypothermia with apomorphine (16 mg/kg i.p.). It is filed as in vivo. To be noted: 30 minutes before apomorphine 16 mg/kg i.p. The method, then:
The administration of a very strong dose of apomorphine (16 mg/kg i.p.) causes hypothermia of approximately 4° C. by the stimulation of dopaminergic heteroreceptors situated on the noradrenergic neurones. The so-created hypothermia is thus due to the failure of noradrenergic neurotransmission. The facilitating agents administered 30 minutes beforehand counteract this hypothermia.

Series [4] relates to mice. Nature of the series: Lethal dose test with yohimbine (potentiation of yohimbine 30 mg/kg i.p.), percentage mortality. The class given is in vivo. To be noted: 9 μmols/kg i.p., 30 minutes before yohimbine 30 mg/kg i.p. The method, then: (§1) Male mice are administered yohimbine (α2 antagonist) by the intraperitoneal route at a dose of 30 mg/kg, a non-lethal dose which only causes the occurrence of hyperexcitability symptoms or convulsions. Any compound that facilitates noradrenergic neurotransmission potentiates the releasing effect of the yohimbine and brings about the death of the animals.
(§2) A percentage mortality is thus measured for each group of animals treated 30 minutes beforehand i.p. or 60 minutes beforehand p.o. with the compound examined.

Experiment in series [5]: as above
The class given is in vivo, mice. As to conditions: mouse, in vivo; yohimbine lethality potentiation, mice; read-out: relationship between the mean effective p.o. and i.p. doses (oral bioavailability). The procedure:
as §1, §2

Series [6] deals with mice. Nature of the series: Cerebral protecting effects: acute global hypoxia (barometric depressurization to 160 mbar), cerebral survival time. The class given is in vivo. To be noted: 60 minutes before hypoxia.
The subject of series [7] is mice. The series is described as above. The class given is in vivo. To be noted: 30 minutes before hypoxia; for increase in the survival time: male mice. The method, then:
The cerebral survival time taken as the occurrence of the last respiratory gasp is measured in control animals and in animals that have received the compound under examination 30 minutes beforehand by the intraperitoneal route.

Series [8] deals with synaptosomal reuptake of noradrenaline (NAD). Put plainly: Synaptosomal reuptake of tritiated noradrenaline in vitro. The class given is biochemical. To be noted: 10^-6 M, synaptosomes, versus control preparation. The procedure: This effect was examined in the […] by measuring the synaptosomal reuptake of noradrenaline (NAD). For this, a fraction of synaptosomes is placed in the presence of tritiated NAD with or without previous incubation with the compound examined.
A measurement of the radioactivity in the synaptosomal pellet makes it possible to calculate the quantity of NAD reuptaken naturally by neurone endings. A compound inhibiting the reuptake reduces the radioactivity measured and a percentage inhibition is measured by comparison with a control preparation.

Regarding `Fc1cc2c(c(OCC3CNCCO3)c1)NCCC2` (racemic) [Example 1, R,S-6-fluoro-8-(2-morpholinylmethoxy)-1,2,3,4-tetrahydroquinoline], the “change in duration of narcosis with barbital” value (shortened to “change … with barbital”) in the series with mice [1] is -36%. In the series on mice [2], the “change in duration of narcosis induced with hexobarbital” value is recorded as “+26%”. In addition, the “inhibiting effect vis-a-vis hypothermia” value is on record as -27% in the series with mice [3] (3 μmols/kg) and -46% in the series with mice [3] (9 μmols/kg).

As to `Fc1ccc(OCC2CNCCO2)c2c1CCCN2` (racemic) [Example 2, R,S-5-fluoro-8-(2-morpholinylmethoxy)-1,2,3,4-tetrahydroquinoline], the “inhibiting effect vis-a-vis hypothermia” value in the series on mice [3] (9 μmols/kg) is -29%.

As to `c1cc2c(c(OCC3CNCCO3)c1)NCCC2` (racemic) [reference product, R,S-8-[(2-morpholinyl)methoxy]-1,2,3,4-tetrahydroquinoline, reference compound], in the series with mice [4], the mortality entry is recorded as “+20%”. In series [5], the ratio of mean effective p.o. to i.p. dose was found to be 4.25. For the same compound, the “increase in the survival time” value with mice [6] (40 μmols/kg orally) is reported as 31%; with mice [7] (3 μmols/kg i.p.), “+5%”; in the series with mice [7] (9 μmols/kg i.p.), “+17%”; with mice [7] (30 μmols/kg i.p.), “+42%”; with mice [7] (90 μmols/kg i.p.) it was “+87%”. Further, the “change … with barbital” value in the series with mice [1] is -20%. The minimal effective dose in the series with mice [7] (Mus musculus, ip, read-out: dose from which hypoxia is significantly counteracted (protecting effect obtained)) was 9 µmol/kg. For the same compound, in series [8], the “inhibition of the reuptake of NAD” value amounted to 33.6%. The entries for the “inhibiting effect vis-a-vis hypothermia” value in the series on mice [3] (3 μmols/kg) and in the series with mice [3] (9 μmols/kg) were “no effect” and “+0.5%”, respectively.

With `CS(=O)(=O)O.Fc1cc2c(c(OC[C@H]3CNCCO3)c1)NCCC2` [Example 1α, R-6-fluoro-8-(2-morpholinylmethoxy)-1,2,3,4-tetrahydroquinoline monomethanesulphonate], the ratio of mean effective p.o. to i.p. dose in series [5] turned out to be 3.16. The “increase in the survival time” value with mice [6] (9 μmols/kg orally) was 37%; in the series with mice [7] (9 μmols/kg i.p.) it was “+37%”; in the series on mice [7] (30 μmols/kg i.p.) it was “+55%”; in the series with mice [7] (90 μmols/kg i.p.) it was “+114%”.

Take `Fc1cc2c(c(OC[C@@H]3CNCCO3)c1)NCCC2` [Example 1β, S-6-fluoro-8-(2-morpholinylmethoxy)-1,2,3,4-tetrahydroquinoline monomethanesulphonate]: the “increase in the survival time” value with mice [7] (3 μmols/kg i.p.) is on record as “+21%”; with mice [7] (9 μmols/kg i.p.), “+42%”; with mice [7] (30 μmols/kg i.p.), “+62%”; in the series with mice [7] (90 μmols/kg i.p.) it was “+108%”. The “inhibition of the reuptake of NAD” value in series [8] is -55.4%.

For the compound `Fc1ccc(OC[C@H]2CNCCO2)c2c1CCCN2` [Example 2α, R-5-fluoro-8-(2-morpholinylmethoxy)-1,2,3,4-tetrahydroquinoline monomethanesulphonate], in series [5], the ratio of mean effective p.o. to i.p. dose was found to be 1.77.

For the compound `Fc1ccc(OC[C@@H]2CNCCO2)c2c1CCCN2` [Example 2β, S-5-fluoro-8-(2-morpholinylmethoxy)-1,2,3,4-tetrahydroquinoline monomethanesulphonate], the “change … with barbital” value in the series on mice [1] is 40%. Further, in the series with mice [7] (3 μmols/kg i.p.), the “increase in the survival time” value is reported as 21%. For the same compound, in series [8], the “inhibition of the reuptake of NAD” value was -58.9%. Further, the “change in duration of narcosis induced with hexobarbital” value in the series on mice [2] is “+20%”. Moreover, the “inhibiting effect vis-a-vis hypothermia” value in the series with mice [3] (3 μmols/kg) was -16%; in the series with mice [3] (9 μmols/kg), -21%.
